Measured values taken from the supplement of paper PMC10307832.

Each cell line was assayed with C[C@@H](C(=O)N[C@@H](C1CCCCC1)C(=O)N2CCC[C@H]2C(=O)N[C@@H]3[C@@H](CC4=CC=CC=C34)OCC#CC#CCO[C@@H]5CC6=CC=CC=C6[C@@H]5NC(=O)[C@@H]7CCCN7C(=O)[C@H](C8CCCCC8)NC(=O)[C@H](C)NC)NC [AZD5582] + Cc1nc(NC(=O)N2CCC[C@H]2C(N)=O)sc1-c1ccnc(C(C)(C)C(F)(F)F)c1 [Alpelisib] (partner 2 µM) (assay: relative viability (nuclei count vs DMSO), 5 days (fraction); higher = more cells survive). Details: first compound 0.001581 µM.
Summary of the method: (§1)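 After 5 days of treatment, lung cancer cells in 1536-well plates were fixed and stained in a single step (final 0.05% Triton X-100, 1% formaldehyde, 1 ug/ml Hoechst) and their nuclei counted on 4× images. Treatment had been applied by pin tool the day after seeding as one drug alone or as a fixed anchor-drug dose with five library-drug doses (not always all listed) in √10 steps. Relative viability is the nuclei count of treated wells divided by that of vehicle wells, and values are medians of duplicate plates.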

Row | Cell Line | relative viability
1 | 201T | 1.05
2 | A549 | 0.713
3 | A-427 | 0.996
4 | ABC-1 | 1.17
5 | BEN | 0.884
6 | COR-L23 | 0.73
7 | COR-L 105 | 0.961
8 | Calu-6 | 0.822
9 | EBC-1 | 0.754
10 | EKVX | 0.868
11 | EMC-BAC-2 | 0.702
12 | EPLC-272H | 0.635
13 | H3255 | 0.596
14 | HARA | 0.75
15 | HCC-15 | 0.771
16 | HCC-44 | 0.683
17 | HCC-78 | 0.298
18 | HCC-366 | 0.363
19 | HCC-827 | 0.898
20 | HOP-62 | 0.997
21 | IA-LM | 0.686
22 | LC-2-ad | 0.911
23 | LCLC-103H | 0.97
24 | LK-2 | 1.05
25 | NCI-H1299 | 1.01
26 | NCI-H1563 | 1.02
27 | NCI-H2170 | 0.764

Same assay, conditions: first compound 0.005 µM

Row | Cell Line | relative viability
28 | 201T | 1.07
29 | A549 | 0.717
30 | A-427 | 1.01
31 | ABC-1 | 1.15
32 | BEN | 1.07
33 | CAL-12T | 0.713
34 | COR-L23 | 0.801
35 | COR-L 105 | 0.847
36 | Calu-6 | 0.843
37 | EBC-1 | 0.866
38 | EKVX | 1.03
39 | EMC-BAC-2 | 0.628
40 | EPLC-272H | 0.506
41 | H3255 | 0.587
42 | HARA | 0.783
43 | HCC-15 | 0.648
44 | HCC-44 | 0.525
45 | HCC-78 | 0.395
46 | HCC-366 | 0.625
47 | HCC-827 | 1.02
48 | HOP-62 | 0.934
49 | IA-LM | 0.71
50 | LC-2-ad | 0.98
51 | LCLC-97TM1 | 0.269
52 | LCLC-103H | 1.23
53 | LK-2 | 1.15
54 | NCI-H1299 | 1.11
55 | NCI-H1563 | 0.893
56 | NCI-H2170 | 0.809

Same assay, conditions: first compound 0.01581 µM

Row | Cell Line | relative viability
57 | 201T | 0.977
58 | A549 | 0.769
59 | A-427 | 1.04
60 | ABC-1 | 1.07
61 | BEN | 1.16
62 | CAL-12T | 1.24
63 | COR-L23 | 0.799
64 | COR-L 105 | 0.981
65 | Calu-6 | 1.07
66 | EBC-1 | 0.869
67 | EKVX | 0.82
68 | EMC-BAC-2 | 0.721
69 | EPLC-272H | 0.136
70 | H3255 | 0.629
71 | HARA | 0.866
72 | HCC-15 | 0.922
73 | HCC-44 | 0.738
74 | HCC-78 | 0.307
75 | HCC-366 | 0.389
76 | HCC-827 | 0.985
77 | HOP-62 | 0.87
78 | IA-LM | 0.844
79 | LC-2-ad | 0.834
80 | LCLC-97TM1 | 0.226
81 | LCLC-103H | 0.471
82 | LK-2 | 1.28
83 | NCI-H1299 | 1.07
84 | NCI-H1563 | 0.858
85 | NCI-H2170 | 0.867

Same assay, conditions: first compound 0.05 µM

Row | Cell Line | relative viability
86 | 201T | 1.25
87 | A549 | 0.835
88 | A-427 | 0.881
89 | ABC-1 | 1.03
90 | BEN | 1.27
91 | CAL-12T | 1.01
92 | COR-L23 | 0.875
93 | COR-L 105 | 1.49
94 | Calu-6 | 0.734
95 | EBC-1 | 0.857
96 | EKVX | 1.08
97 | EMC-BAC-2 | 0.316
98 | EPLC-272H | 0.217
99 | H3255 | 0.498
100 | HARA | 0.701
101 | HCC-15 | 0.555
102 | HCC-44 | 0.368
103 | HCC-78 | 0.3
104 | HCC-366 | 0.774
105 | HCC-827 | 1.04
106 | HOP-62 | 1.25
107 | IA-LM | 0.686
108 | LC-2-ad | 1.11
109 | LCLC-97TM1 | 0.23
110 | LCLC-103H | 0.64
111 | LK-2 | 1.33
112 | NCI-H1299 | 1.03
113 | NCI-H1563 | 1.01
114 | NCI-H2170 | 0.969

What follows are cell lines tested with Cn1nnc2c(C(N)=O)ncn2c1=O [Temozolomide] + C[C@]1(O)C[C@@H](c2nc(-c3ccc4ccc(-c5ccccc5)nc4c3)c3c(N)nccn32)C1 [Linsitinib] (partner 1 µM) in the same assay as above. Details: first compound 0.2 µM.
Summary of the method: as §1

Row | Cell Line | relative viability
115 | 201T | 0.975
116 | A549 | 0.348
117 | A-427 | 1.1
118 | ABC-1 | 0.899
119 | BEN | 0.752
120 | CAL-12T | 0.627
121 | COR-L23 | 1.01
122 | COR-L 105 | 0.919
123 | Calu-6 | 0.929
124 | EBC-1 | 1.03
125 | EKVX | 0.442
126 | EMC-BAC-2 | 0.719
127 | EPLC-272H | 1.13
128 | HARA | 0.593
129 | HCC-15 | 0.976
130 | HCC-44 | 0.668
131 | HCC-78 | 0.387
132 | HCC-366 | 0.607
133 | HCC-827 | 0.998
134 | HOP-62 | 1.05
135 | IA-LM | 0.941
136 | LC-2-ad | 0.795
137 | LCLC-97TM1 | 0.191
138 | LCLC-103H | 1.03
139 | LK-2 | 0.359
140 | NCI-H1299 | 0.994
141 | NCI-H1563 | 1.14

Same assay, conditions: first compound 0.6325 µM

Row | Cell Line | relative viability
142 | 201T | 1.07
143 | A549 | 0.684
144 | A-427 | 1.15
145 | ABC-1 | 0.83
146 | BEN | 0.941
147 | CAL-12T | 0.799
148 | COR-L23 | 1.08
149 | COR-L 105 | 1.01
150 | Calu-6 | 0.941
151 | EBC-1 | 0.885
152 | EKVX | 1.05
153 | EMC-BAC-2 | 0.85
154 | EPLC-272H | 1.13
155 | H3255 | 0.963
156 | HARA | 0.985
157 | HCC-15 | 0.905
158 | HCC-44 | 0.741
159 | HCC-78 | 0.618
160 | HCC-366 | 0.708
161 | HCC-827 | 0.959
162 | HOP-62 | 1.01
163 | IA-LM | 0.518
164 | LC-2-ad | 0.823
165 | LCLC-97TM1 | 0.19
166 | LCLC-103H | 1.05
167 | LK-2 | 0.543
168 | NCI-H1299 | 0.961
169 | NCI-H1563 | 1.26

Same assay, conditions: first compound 2 µM

Row | Cell Line | relative viability
170 | 201T | 1.11
171 | A549 | 0.759
172 | A-427 | 1.15
173 | ABC-1 | 0.943
174 | BEN | 0.997
175 | CAL-12T | 0.841
176 | COR-L23 | 0.863
177 | COR-L 105 | 1.03
178 | Calu-6 | 1.17
179 | EBC-1 | 1.13
180 | EKVX | 1.04
181 | EMC-BAC-2 | 0.766
182 | EPLC-272H | 1.38
183 | H3255 | 0.927
184 | HARA | 1.09
185 | HCC-15 | 0.928
186 | HCC-44 | 0.681
187 | HCC-78 | 0.668
188 | HCC-366 | 0.72
189 | HCC-827 | 0.954
190 | HOP-62 | 0.895
191 | IA-LM | 0.664
192 | LC-2-ad | 0.808
193 | LCLC-97TM1 | 0.173
194 | LCLC-103H | 1.23
195 | LK-2 | 0.418
196 | NCI-H1299 | 1.16
197 | NCI-H1563 | 1.39

Same assay, conditions: first compound 6.325 µM

Row | Cell Line | relative viability
198 | 201T | 1.04
199 | A549 | 0.517
200 | A-427 | 0.948
201 | ABC-1 | 0.716
202 | BEN | 0.781
203 | CAL-12T | 0.778
204 | COR-L23 | 0.994
205 | COR-L 105 | 0.797
206 | Calu-6 | 0.971
207 | EBC-1 | 0.912
208 | EKVX | 1.06
209 | EMC-BAC-2 | 0.799
210 | EPLC-272H | 1.11
211 | H3255 | 0.959
212 | HARA | 0.933
213 | HCC-15 | 0.858
214 | HCC-44 | 0.718
215 | HCC-78 | 0.67
216 | HCC-366 | 0.709
217 | HCC-827 | 0.968
218 | HOP-62 | 0.832
219 | IA-LM | 0.548
220 | LC-2-ad | 0.751
221 | LCLC-97TM1 | 0.176
222 | LCLC-103H | 1.09
223 | LK-2 | 0.382
224 | NCI-H1299 | 1
225 | NCI-H1563 | 1.23

Same assay, conditions: first compound 20 µM

Row | Cell Line | relative viability
226 | 201T | 0.991
227 | A549 | 0.467
228 | A-427 | 0.604
229 | ABC-1 | 0.771
230 | BEN | 0.707
231 | CAL-12T | 0.698
232 | COR-L23 | 0.819
233 | COR-L 105 | 0.7
234 | Calu-6 | 1.02
235 | EBC-1 | 0.947
236 | EKVX | 0.707
237 | EMC-BAC-2 | 0.749
238 | EPLC-272H | 0.812
239 | H3255 | 0.145
240 | HARA | 0.863
241 | HCC-15 | 0.888
242 | HCC-44 | 0.562
243 | HCC-78 | 0.529
244 | HCC-366 | 0.762
245 | HCC-827 | 0.158
246 | HOP-62 | 0.866
247 | IA-LM | 0.909
248 | LC-2-ad | 0.807
249 | LCLC-97TM1 | 0.203
250 | LCLC-103H | 1.01
251 | LK-2 | 0.253
252 | NCI-H1299 | 1.02
253 | NCI-H1563 | 1.22

What follows are cell lines tested with Cn1nnc2c(C(N)=O)ncn2c1=O [Temozolomide] + CC(=O)Nc1cccc(-n2c(=O)n(C3CC3)c(=O)c3c(Nc4ccc(I)cc4F)n(C)c(=O)c(C)c32)c1 [Trametinib] (partner 0.02 µM) in the same assay as above. Details: first compound 0.2 µM.
Summary of the method: as §1

Row | Cell Line | relative viability
254 | 201T | 0.707
255 | A-427 | 0.807
256 | BEN | 0.813
257 | CAL-12T | 0.285
258 | COR-L23 | 0.624
259 | COR-L 105 | 0.425
260 | ChaGo-K-1 | 0.959
261 | EMC-BAC-2 | 0.906
262 | EPLC-272H | 0.241
